Measurements from paper PMC8462848, “Quinazolin-4(3H)-one based potential multiple tyrosine kinase inhibitors with excellent cytotoxicity” (Journal of Enzyme Inhibition and Medicinal Chemistry, 2021).

test system: MCF7 (human breast adenocarcinoma) cells; assay: MTT cytotoxicity assay, MCF7; assay type: cell-based; conditions: Homo sapiens, MCF7, mean ± SD of triplicate
Procedure: (§1) The cytotoxicity of the synthesised quinazolin-4(3H)-ones was evaluated by MTT assay, as previously described. Two cancer cell lines, MCF7 (human breast adenocarcinoma) and A2780 (human ovary adenocarcinoma), were used in this study, which were obtained from the ATCC (Rockville, MD, USA). […] Additionally, compounds were prepared at the same medium to obtain serial dilutions (50, 25, […] and 0.1 µM). […] The media were aspirated, and the formazan crystals were solubilised by adding 150 µL DMSO. Absorbance was read on a multi-plate reader (BioRad) at […]. […] The data were obtained from triplicates and analysed using statistical software.

Compound | IC50 [nM]
CCOC(=O)CSc1nc2ccc(Cl)cc2c(=O)n1-c1ccccc1 [2a, Ethyl 2-((6-chloro-4-oxo-3-phenyl-3,4-dihydroquinazolin-2-yl)thio)acetate] | 1500 ± 10
CCOC(=O)CSc1nc2ccc(F)cc2c(=O)n1-c1ccccc1 [2b, Ethyl 2-((6-fluoro-4-oxo-3-phenyl-3,4-dihydroquinazolin-2-yl)thio)acetate] | 15720 ± 70
CCOC(=O)CSc1nc2c(F)cc(F)cc2c(=O)n1-c1ccccc1 [2c, Ethyl 2-((6,8-difluoro-4-oxo-3-phenyl-3,4-dihydroquinazolin-2-yl)thio)acetate] | 730 ± 180
CCOC(=O)CSc1nc2cc(OC)c(OC)cc2c(=O)n1-c1ccccc1 [2d, Ethyl 2-((6,7-dimethoxy-4-oxo-3-phenyl-3,4-dihydroquinazolin-2-yl)thio)acetate] | 1560 ± 20
CCOC(=O)CSc1nc2ccc(Cl)cc2c(=O)n1Cc1ccccc1 [2f, Ethyl 2-((3-benzyl-6-chloro-4-oxo-3,4-dihydroquinazolin-2-yl)thio)acetate] | 1560 ± 240
NNC(=O)CSc1nc2ccc(Cl)cc2c(=O)n1-c1ccccc1 [3a, 2-((6-Chloro-4-oxo-3-phenyl-3,4-dihydroquinazolin-2-yl)thio)acetohydrazide] | 200 ± 20
NNC(=O)CSc1nc2ccc(F)cc2c(=O)n1-c1ccccc1 [3b, 2-((6-Fluoro-4-oxo-3-phenyl-3,4-dihydroquinazolin-2-yl)thio)acetohydrazide] | 1320 ± 120

test system: A2780 (human ovary adenocarcinoma) cells; assay: MTT cytotoxicity assay, A2780; assay type: cell-based; conditions: Homo sapiens, A2780, mean ± SD of triplicate
Procedure: as §1

Compound | IC50 [nM]
CCOC(=O)CSc1nc2ccc(Cl)cc2c(=O)n1-c1ccccc1 [2a, Ethyl 2-((6-chloro-4-oxo-3-phenyl-3,4-dihydroquinazolin-2-yl)thio)acetate] | 2050 ± 640
CCOC(=O)CSc1nc2ccc(F)cc2c(=O)n1-c1ccccc1 [2b, Ethyl 2-((6-fluoro-4-oxo-3-phenyl-3,4-dihydroquinazolin-2-yl)thio)acetate] | 2980 ± 300
CCOC(=O)CSc1nc2c(F)cc(F)cc2c(=O)n1-c1ccccc1 [2c, Ethyl 2-((6,8-difluoro-4-oxo-3-phenyl-3,4-dihydroquinazolin-2-yl)thio)acetate] | 490 ± 50
CCOC(=O)CSc1nc2cc(OC)c(OC)cc2c(=O)n1-c1ccccc1 [2d, Ethyl 2-((6,7-dimethoxy-4-oxo-3-phenyl-3,4-dihydroquinazolin-2-yl)thio)acetate] | 1230 ± 100
CCOC(=O)CSc1nc2ccc(Cl)cc2c(=O)n1Cc1ccccc1 [2f, Ethyl 2-((3-benzyl-6-chloro-4-oxo-3,4-dihydroquinazolin-2-yl)thio)acetate] | 1320 ± 430
NNC(=O)CSc1nc2ccc(Cl)cc2c(=O)n1-c1ccccc1 [3a, 2-((6-Chloro-4-oxo-3-phenyl-3,4-dihydroquinazolin-2-yl)thio)acetohydrazide] | 3000 ± 1200
NNC(=O)CSc1nc2ccc(F)cc2c(=O)n1-c1ccccc1 [3b, 2-((6-Fluoro-4-oxo-3-phenyl-3,4-dihydroquinazolin-2-yl)thio)acetohydrazide] | 300 ± 60

target: T1, CDK2/CyclinA2 (Homo sapiens, UniProt P24941); assay: CDK2 Assay Kit, Kinase-Glo MAX luminescence; assay type: biochemical; conditions: 0.01 µM; one experimental data
T1 construct: purchased #79599
Procedure: The CDK2 Assay Kit is designed to measure CDK2/CyclinA2 activity for screening and profiling applications, using Kinase-Glo® MAX as a detection reagent. The CDK2 Assay Kit comes in a convenient 96-well format, with enough purified recombinant CDK2/CyclinA2 enzyme, CDK substrate peptide, ATP and kinase assay buffer for 100 enzyme reactions. […] […] The compounds were diluted in 10% DMSO and 5 μl of the dilution was added to a 50 μl reaction so that the final concentration of DMSO was 1% in all of the reactions. All of the enzymatic reactions were conducted at 30 °C for 40 min. The 50 μl reaction mixture contained 40 mM Tris, pH 7.4, 10 mM MgCl2, 0.1 mg/mL BSA, 1 mM DTT, 10 mM ATP, Kinase substrate and the enzyme (CDK2/CyclinA2). After the enzymatic reaction, 50 μl of Kinase-Glo® MAX Luminescence kinase assay solution was added to each reaction and the plates were incubated for 5 min at room temperature. Luminescence signal was measured using a Bio Tek Synergy 2 microplate reader.
Figure S1. Calculation of the IC20 Values of Protein Kinase Enzyme CDK2 for 2f
* All the kinase IC20 (µM) were calculated according to the above equations.
(1 picture or pasted object on this page, not shown here)

Compound | inhibition at 0.01 µM [%]
CCOC(=O)CSc1nc2ccc(Cl)cc2c(=O)n1Cc1ccccc1 [2f, Ethyl 2-((3-benzyl-6-chloro-4-oxo-3,4-dihydroquinazolin-2-yl)thio)acetate] | 4.32

same assay, conditions: 0.1 µM; one experimental data

Compound | inhibition at 0.1 µM [%]
CCOC(=O)CSc1nc2ccc(Cl)cc2c(=O)n1Cc1ccccc1 [2f, Ethyl 2-((3-benzyl-6-chloro-4-oxo-3,4-dihydroquinazolin-2-yl)thio)acetate] | 31.2

same assay, conditions: 1 µM; one experimental data

Compound | inhibition at 1 µM [%]
CCOC(=O)CSc1nc2ccc(Cl)cc2c(=O)n1Cc1ccccc1 [2f, Ethyl 2-((3-benzyl-6-chloro-4-oxo-3,4-dihydroquinazolin-2-yl)thio)acetate] | 32.9

same assay, conditions: 10 µM; one experimental data

Compound | inhibition at 10 µM [%]
CCOC(=O)CSc1nc2ccc(Cl)cc2c(=O)n1Cc1ccccc1 [2f, Ethyl 2-((3-benzyl-6-chloro-4-oxo-3,4-dihydroquinazolin-2-yl)thio)acetate] | 84

target: T2, HER2 (Homo sapiens, UniProt P04626); assay: HER2 kinase assay kit, Kinase-Glo MAX luminescence; assay type: biochemical; conditions: 0.01 µM; one experimental data
T2 construct: purchased #40721
T2 sequence (P04626 23-1255): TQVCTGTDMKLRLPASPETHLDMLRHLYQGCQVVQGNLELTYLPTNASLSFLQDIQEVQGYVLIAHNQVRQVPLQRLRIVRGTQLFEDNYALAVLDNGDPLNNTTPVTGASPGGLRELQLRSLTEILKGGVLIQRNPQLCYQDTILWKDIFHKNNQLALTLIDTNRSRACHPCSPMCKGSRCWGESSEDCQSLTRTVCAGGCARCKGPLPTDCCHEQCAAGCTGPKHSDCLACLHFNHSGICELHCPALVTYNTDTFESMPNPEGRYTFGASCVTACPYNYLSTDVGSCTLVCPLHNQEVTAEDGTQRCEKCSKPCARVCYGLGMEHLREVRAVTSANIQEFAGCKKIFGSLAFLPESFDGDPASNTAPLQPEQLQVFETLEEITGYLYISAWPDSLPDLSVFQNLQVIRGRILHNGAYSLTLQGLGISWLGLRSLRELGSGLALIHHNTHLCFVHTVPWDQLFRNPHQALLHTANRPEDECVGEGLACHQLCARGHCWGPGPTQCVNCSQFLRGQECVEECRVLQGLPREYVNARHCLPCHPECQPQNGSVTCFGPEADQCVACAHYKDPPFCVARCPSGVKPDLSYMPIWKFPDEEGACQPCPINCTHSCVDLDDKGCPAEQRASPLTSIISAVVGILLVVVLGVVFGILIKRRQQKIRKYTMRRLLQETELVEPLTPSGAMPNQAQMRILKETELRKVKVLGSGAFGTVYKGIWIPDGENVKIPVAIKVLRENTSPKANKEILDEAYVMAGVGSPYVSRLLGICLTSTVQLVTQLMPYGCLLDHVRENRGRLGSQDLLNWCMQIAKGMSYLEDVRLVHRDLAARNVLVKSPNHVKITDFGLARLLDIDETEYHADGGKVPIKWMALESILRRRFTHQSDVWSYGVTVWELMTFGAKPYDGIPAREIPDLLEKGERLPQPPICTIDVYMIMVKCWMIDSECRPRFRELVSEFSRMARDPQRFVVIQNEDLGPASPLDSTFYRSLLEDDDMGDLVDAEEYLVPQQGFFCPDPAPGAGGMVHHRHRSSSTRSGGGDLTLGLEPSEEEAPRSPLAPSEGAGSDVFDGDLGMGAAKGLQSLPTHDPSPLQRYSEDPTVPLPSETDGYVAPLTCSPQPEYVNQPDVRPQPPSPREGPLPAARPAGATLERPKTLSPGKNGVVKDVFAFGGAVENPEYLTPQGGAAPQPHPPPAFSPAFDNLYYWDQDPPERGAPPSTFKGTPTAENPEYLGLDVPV
Procedure: (§2) The HER2/EGFR/VEGFR2 assay kit is designed to measure HER2/EGFR/VEGFR-2 inhibitory activity for screening and profiling applications, using Kinase-Glo® MAX as a detection reagent. The HER2/EGFR/VEGFR2 assay kit comes in a convenient 96-well format, with enough purified recombinant HER2/EGFR/VEGFR2 enzyme, HER2/EGFR/VEGFR2 substrate, ATP and kinase buffer 1 for 100 enzyme reactions. […] […] The quinazolin-4(3H)-ones were diluted in 10% DMSO and 5 μl of the dilution was added to a 50 μl reaction so that the final concentration of DMSO was 1% in all of the reactions. All of the enzymatic reactions were conducted at 30 °C for 40 min. The 50 μl reaction mixture contained 40 mM Tris, pH 7.4, 10 mM MgCl2, 0.1 mg/mL BSA, 1 mM DTT, 10 mM ATP, kinase substrate and the enzyme HER2 / EGFR / VEGFR2. After the enzymatic reaction, 50 μl of Kinase-Glo® MAX luminescence kinase assay solution was added to each reaction and the plates were incubated for 5 min at room temperature. Luminescence signal was measured using a Bio Tek Synergy 2 microplate reader (For detail enzyme assay protocol and the results, please see supplementary data).

Compound | inhibition at 0.01 µM [%]
CCOC(=O)CSc1nc2ccc(Cl)cc2c(=O)n1Cc1ccccc1 [2f, Ethyl 2-((3-benzyl-6-chloro-4-oxo-3,4-dihydroquinazolin-2-yl)thio)acetate] | 2.33

same assay, conditions: 0.1 µM; one experimental data

Compound | inhibition at 0.1 µM [%]
CCOC(=O)CSc1nc2ccc(Cl)cc2c(=O)n1Cc1ccccc1 [2f, Ethyl 2-((3-benzyl-6-chloro-4-oxo-3,4-dihydroquinazolin-2-yl)thio)acetate] | 38.9

same assay, conditions: 1 µM; one experimental data

Compound | inhibition at 1 µM [%]
CCOC(=O)CSc1nc2ccc(Cl)cc2c(=O)n1Cc1ccccc1 [2f, Ethyl 2-((3-benzyl-6-chloro-4-oxo-3,4-dihydroquinazolin-2-yl)thio)acetate] | 74.8

same assay, conditions: 10 µM; one experimental data

Compound | inhibition at 10 µM [%]
CCOC(=O)CSc1nc2ccc(Cl)cc2c(=O)n1Cc1ccccc1 [2f, Ethyl 2-((3-benzyl-6-chloro-4-oxo-3,4-dihydroquinazolin-2-yl)thio)acetate] | 89.8

same assay, conditions: mean ± SD of triplicate

Compound | IC50 [nM]
CCOC(=O)CSc1nc2ccc(Cl)cc2c(=O)n1Cc1ccccc1 [2f, Ethyl 2-((3-benzyl-6-chloro-4-oxo-3,4-dihydroquinazolin-2-yl)thio)acetate] | 264 ± 13

target: T3, EGFR (Homo sapiens, UniProt P00533); assay: EGFR kinase assay kit, Kinase-Glo MAX luminescence; assay type: biochemical; conditions: 0.01 µM; one experimental data
T3 construct: purchased #40321
T3 sequence (P00533 25-1210): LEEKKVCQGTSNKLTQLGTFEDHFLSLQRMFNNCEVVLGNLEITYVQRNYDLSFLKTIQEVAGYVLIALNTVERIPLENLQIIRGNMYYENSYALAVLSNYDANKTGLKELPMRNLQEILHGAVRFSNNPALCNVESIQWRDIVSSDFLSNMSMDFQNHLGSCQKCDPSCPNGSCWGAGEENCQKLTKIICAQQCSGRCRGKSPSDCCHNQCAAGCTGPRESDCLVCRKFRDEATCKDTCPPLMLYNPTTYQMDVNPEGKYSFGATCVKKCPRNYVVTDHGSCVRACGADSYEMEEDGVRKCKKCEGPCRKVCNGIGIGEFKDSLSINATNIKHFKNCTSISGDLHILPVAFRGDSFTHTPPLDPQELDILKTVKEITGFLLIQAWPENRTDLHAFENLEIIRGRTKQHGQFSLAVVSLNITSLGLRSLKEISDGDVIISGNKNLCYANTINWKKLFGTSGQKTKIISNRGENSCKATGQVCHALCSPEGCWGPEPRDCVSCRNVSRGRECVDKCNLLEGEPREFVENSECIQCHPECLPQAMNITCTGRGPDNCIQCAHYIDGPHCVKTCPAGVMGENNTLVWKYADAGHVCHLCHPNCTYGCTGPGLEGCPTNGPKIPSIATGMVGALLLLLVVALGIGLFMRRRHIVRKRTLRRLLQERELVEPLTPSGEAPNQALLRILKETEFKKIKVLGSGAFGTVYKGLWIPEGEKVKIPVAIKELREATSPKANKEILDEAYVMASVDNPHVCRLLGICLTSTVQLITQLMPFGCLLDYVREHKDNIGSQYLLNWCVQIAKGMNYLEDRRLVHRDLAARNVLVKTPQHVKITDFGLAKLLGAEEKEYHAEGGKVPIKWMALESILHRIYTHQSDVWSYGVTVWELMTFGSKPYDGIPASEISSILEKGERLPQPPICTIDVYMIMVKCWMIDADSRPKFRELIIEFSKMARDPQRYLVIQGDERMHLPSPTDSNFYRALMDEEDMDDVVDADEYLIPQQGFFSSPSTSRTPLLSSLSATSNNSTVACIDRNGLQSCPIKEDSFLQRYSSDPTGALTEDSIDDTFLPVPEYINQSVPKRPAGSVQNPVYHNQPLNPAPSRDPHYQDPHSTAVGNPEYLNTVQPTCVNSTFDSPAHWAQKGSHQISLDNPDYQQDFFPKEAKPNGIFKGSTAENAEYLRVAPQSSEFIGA
Procedure: as §2

Compound | inhibition at 0.01 µM [%]
CCOC(=O)CSc1nc2ccc(Cl)cc2c(=O)n1Cc1ccccc1 [2f, Ethyl 2-((3-benzyl-6-chloro-4-oxo-3,4-dihydroquinazolin-2-yl)thio)acetate] | 2.18

same assay, conditions: 0.1 µM; one experimental data

Compound | inhibition at 0.1 µM [%]
CCOC(=O)CSc1nc2ccc(Cl)cc2c(=O)n1Cc1ccccc1 [2f, Ethyl 2-((3-benzyl-6-chloro-4-oxo-3,4-dihydroquinazolin-2-yl)thio)acetate] | 19.1

same assay, conditions: 1 µM; one experimental data

Compound | inhibition at 1 µM [%]
CCOC(=O)CSc1nc2ccc(Cl)cc2c(=O)n1Cc1ccccc1 [2f, Ethyl 2-((3-benzyl-6-chloro-4-oxo-3,4-dihydroquinazolin-2-yl)thio)acetate] | 29.2

same assay, conditions: 10 µM; one experimental data

Compound | inhibition at 10 µM [%]
CCOC(=O)CSc1nc2ccc(Cl)cc2c(=O)n1Cc1ccccc1 [2f, Ethyl 2-((3-benzyl-6-chloro-4-oxo-3,4-dihydroquinazolin-2-yl)thio)acetate] | 83.2

same assay, conditions: mean ± SD of triplicate

Compound | IC50 [nM]
CCOC(=O)CSc1nc2ccc(Cl)cc2c(=O)n1Cc1ccccc1 [2f, Ethyl 2-((3-benzyl-6-chloro-4-oxo-3,4-dihydroquinazolin-2-yl)thio)acetate] | 584 ± 11

target: T4, VEGFR2 (Homo sapiens, UniProt P35968); assay: VEGFR2 kinase assay kit, Kinase-Glo MAX luminescence; assay type: biochemical; conditions: 0.01 µM; one experimental data; read-out: % Inhibition VEGFR-2
T4 construct: purchased #40325
T4 sequence (P35968 20-1356): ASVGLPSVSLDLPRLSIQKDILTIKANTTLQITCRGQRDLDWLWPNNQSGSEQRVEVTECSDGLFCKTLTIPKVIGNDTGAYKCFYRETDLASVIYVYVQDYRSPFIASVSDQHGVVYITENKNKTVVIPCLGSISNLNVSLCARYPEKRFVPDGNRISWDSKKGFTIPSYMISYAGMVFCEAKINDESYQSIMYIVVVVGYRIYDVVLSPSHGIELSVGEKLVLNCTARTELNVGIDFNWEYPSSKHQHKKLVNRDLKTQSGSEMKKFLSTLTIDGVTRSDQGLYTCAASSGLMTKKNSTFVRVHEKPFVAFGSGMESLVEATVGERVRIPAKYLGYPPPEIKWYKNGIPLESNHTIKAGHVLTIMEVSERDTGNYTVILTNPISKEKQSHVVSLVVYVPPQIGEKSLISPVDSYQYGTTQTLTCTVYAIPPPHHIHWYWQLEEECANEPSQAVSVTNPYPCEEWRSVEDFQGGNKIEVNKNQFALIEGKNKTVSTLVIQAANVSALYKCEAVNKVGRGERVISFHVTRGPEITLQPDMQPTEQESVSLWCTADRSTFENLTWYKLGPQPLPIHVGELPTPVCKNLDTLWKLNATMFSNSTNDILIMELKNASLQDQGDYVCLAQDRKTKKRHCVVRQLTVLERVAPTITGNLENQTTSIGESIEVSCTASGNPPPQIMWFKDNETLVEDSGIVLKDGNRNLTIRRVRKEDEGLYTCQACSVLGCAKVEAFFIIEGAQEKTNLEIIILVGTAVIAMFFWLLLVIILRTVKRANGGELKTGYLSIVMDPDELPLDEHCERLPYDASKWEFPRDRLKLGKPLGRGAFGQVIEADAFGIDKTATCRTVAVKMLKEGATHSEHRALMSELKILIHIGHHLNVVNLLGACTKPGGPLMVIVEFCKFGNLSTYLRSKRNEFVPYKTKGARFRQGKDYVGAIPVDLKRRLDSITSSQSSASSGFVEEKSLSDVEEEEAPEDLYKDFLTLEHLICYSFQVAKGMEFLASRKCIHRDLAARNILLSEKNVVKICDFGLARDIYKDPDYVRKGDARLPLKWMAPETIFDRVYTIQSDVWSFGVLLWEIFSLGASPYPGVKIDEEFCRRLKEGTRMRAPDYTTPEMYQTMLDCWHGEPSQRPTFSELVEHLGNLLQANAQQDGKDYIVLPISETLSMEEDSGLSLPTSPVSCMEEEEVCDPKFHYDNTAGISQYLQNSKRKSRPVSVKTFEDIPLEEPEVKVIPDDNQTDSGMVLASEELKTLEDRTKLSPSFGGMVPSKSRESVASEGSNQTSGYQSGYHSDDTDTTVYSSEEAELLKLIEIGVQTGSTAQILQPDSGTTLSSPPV
Procedure: as §2

Compound | inhibition at 0.01 µM [%]
CCOC(=O)CSc1nc2ccc(Cl)cc2c(=O)n1Cc1ccccc1 [2f, Ethyl 2-((3-benzyl-6-chloro-4-oxo-3,4-dihydroquinazolin-2-yl)thio)acetate] | 3.49

same assay, conditions: 0.1 µM; one experimental data; read-out: % Inhibition VEGFR-2

Compound | inhibition at 0.1 µM [%]
CCOC(=O)CSc1nc2ccc(Cl)cc2c(=O)n1Cc1ccccc1 [2f, Ethyl 2-((3-benzyl-6-chloro-4-oxo-3,4-dihydroquinazolin-2-yl)thio)acetate] | 20.2

same assay, conditions: 1 µM; one experimental data; read-out: % Inhibition VEGFR-2

Compound | inhibition at 1 µM [%]
CCOC(=O)CSc1nc2ccc(Cl)cc2c(=O)n1Cc1ccccc1 [2f, Ethyl 2-((3-benzyl-6-chloro-4-oxo-3,4-dihydroquinazolin-2-yl)thio)acetate] | 40.1

same assay, conditions: 10 µM; one experimental data; read-out: % Inhibition VEGFR-2

Compound | inhibition at 10 µM [%]
CCOC(=O)CSc1nc2ccc(Cl)cc2c(=O)n1Cc1ccccc1 [2f, Ethyl 2-((3-benzyl-6-chloro-4-oxo-3,4-dihydroquinazolin-2-yl)thio)acetate] | 38.3

same assay, conditions: mean ± SD of triplicate

Compound | IC50 [nM]
CCOC(=O)CSc1nc2ccc(Cl)cc2c(=O)n1Cc1ccccc1 [2f, Ethyl 2-((3-benzyl-6-chloro-4-oxo-3,4-dihydroquinazolin-2-yl)thio)acetate] | 1920 ± 21

test system: not given; assay: not given; conditions: not given

Compound | melting point [°C]
CCOC(=O)CSc1nc2ccc(Cl)cc2c(=O)n1-c1ccccc1 [2a, Ethyl 2-((6-chloro-4-oxo-3-phenyl-3,4-dihydroquinazolin-2-yl)thio)acetate] | 85 to 87
CCOC(=O)CSc1nc2ccc(F)cc2c(=O)n1-c1ccccc1 [2b, Ethyl 2-((6-fluoro-4-oxo-3-phenyl-3,4-dihydroquinazolin-2-yl)thio)acetate] | 124 to 127
CCOC(=O)CSc1nc2c(F)cc(F)cc2c(=O)n1-c1ccccc1 [2c, Ethyl 2-((6,8-difluoro-4-oxo-3-phenyl-3,4-dihydroquinazolin-2-yl)thio)acetate] | 151 to 153
CCOC(=O)CSc1nc2cc(OC)c(OC)cc2c(=O)n1-c1ccccc1 [2d, Ethyl 2-((6,7-dimethoxy-4-oxo-3-phenyl-3,4-dihydroquinazolin-2-yl)thio)acetate] | 145 to 146
CCOC(=O)CSc1nc2ccc(Cl)cc2c(=O)n1Cc1ccccc1 [2f, Ethyl 2-((3-benzyl-6-chloro-4-oxo-3,4-dihydroquinazolin-2-yl)thio)acetate] | 73 to 75
NNC(=O)CSc1nc2ccc(Cl)cc2c(=O)n1-c1ccccc1 [3a, 2-((6-Chloro-4-oxo-3-phenyl-3,4-dihydroquinazolin-2-yl)thio)acetohydrazide] | 181 to 183
NNC(=O)CSc1nc2ccc(F)cc2c(=O)n1-c1ccccc1 [3b, 2-((6-Fluoro-4-oxo-3-phenyl-3,4-dihydroquinazolin-2-yl)thio)acetohydrazide] | 192 to 194

target: T1, CDK2/CyclinA2; assay: CDK2 Assay Kit, Kinase-Glo MAX luminescence; assay type: biochemical; conditions: mean ± SD of triplicate

Compound | IC50 [nM]
CCOC(=O)CSc1nc2ccc(Cl)cc2c(=O)n1Cc1ccccc1 [2f, Ethyl 2-((3-benzyl-6-chloro-4-oxo-3,4-dihydroquinazolin-2-yl)thio)acetate] | 424 ± 12
